Measured values reported in DBAASP.
≈ marks a conversion by molar mass, not a printed value. Where “and” joins values, the source holds several entries; their conditions need not be identical. Equal entries are not always repeated.

Experiments:
Assay in all cases: ≥ marks a high value that may be exact or a test limit, other limits are often not marked, values filed in µg/mL are converted to µM
[1] = test system: Staphylococcus aureus ATCC 43300
[2] = test system: Escherichia coli ATCC 25922
[3] = test system: Staphylococcus aureus ΔmprFpRBsyn
Staphylococcus aureus = test system: Staphylococcus aureus
[4] = test system: Pseudomonas aeruginosa CUN 4158-02
[5] = test system: Staphylococcus aureus ΔmprF
[6] = test system: Brucella abortus 9.49 (per-)
[7] = test system: Bordetella bronchiseptica CUN 11844-99
Yersinia pestis KIM pYV = test system: Yersinia pestis KIM pYV
[8] = test system: Acinetobacter baumannii ATCC 19606
[9] = test system: Penicillium digitatum PHI-26
[10] = test system: Escherichia coli KCTC 1682
[11] = test system: Pseudomonas aeruginosa KCTC 1637
[12] = test system: Bacillus subtilis KCTC 3068
[13] = test system: Staphylococcus epidermidis KCTC 1917
[14] = test system: Pseudomonas aeruginosa H1001
[15] = test system: Salmonella typhimurium KCTC 1926
[16] = test system: Staphylococcus aureus KCTC 1621
[17] = test system: Bacillus licheniformis X39
[18] = test system: Staphylococcus aureus ATCC 25923
[19] = test system: Staphylococcus carnosus KHS
[20] = test system: Rhodococcus rhodochrous X15
Serratia rubidaea X01 = test system: Serratia rubidaea X01
[21] = test system: Klebsiella pneumoniae 08040724
[22] = test system: Enterococcus faecalis 981
[23] = test system: Psychrobacter faecalis X29
[24] = test system: Pseudomonas aeruginosa ATCC 9027
[25] = test system: Staphylococcus aureus NCTC 12493
[26] = test system: Staphylococcus aureus ATCC 6538
[27] = test system: Candida albicans ATCC 2002
[28] = test system: Staphylococcus aureus NCTC 10788
[29] = test system: Enterococcus faecium NTCC 12697
[30] = test system: Klebsiella pneumoniae ATCC 43816
[31] = test system: Bacillus subtilis ATCC 6633
[32] = test system: Escherichia coli ATCC 8739
[33] = test system: Pseudomonas aeruginosa CMCCB 10104
[34] = test system: Streptococcus agalactiae ATCC 12386
[35] = test system: Pseudomonas aeruginosa ATCC 27853
[36] = test system: Enterococcus faecalis ATCC 29212
[37] = test system: Staphylococcus aureus ATCC 29213
[38] = test system: Klebsiella pneumoniae ATCC 13883

CC[C@H](C)[C@H](NC(=O)[C@H](CCCN=C(N)N)NC(=O)[C@H](CCCN=C(N)N)NC(=O)[C@H](CC(C)C)NC(=O)[C@H](Cc1ccccc1)NC(=O)[C@@H](NC(=O)[C@H](CCCN=C(N)N)NC(=O)[C@H](CCSC)NC(=O)[C@@H](NC(=O)[C@H](CCCCN)NC(=O)[C@H](CCCCN)NC(=O)[C@H](CO)NC(=O)[C@@H](NC(=O)CNC(=O)[C@H](CCCN=C(N)N)NC(=O)[C@H](CC(C)C)NC(=O)[C@@H](NC(=O)[C@@H](N)CCCCN)[C@@H](C)CC)C(C)C)[C@@H](C)CC)[C@@H](C)O)C(=O)N[C@@H](CO)C(=O)N[C@@H](CCCCN)C(=O)N[C@@H](CC(=O)O)C(=O)N[C@H](C(=O)N[C@@H](CC(C)C)C(=O)N[C@H](C(=O)NCC(=O)N[C@@H](CCCCN)C(=O)N[C@@H](CCCCN)C(N)=O)[C@@H](C)O)[C@@H](C)CC [KILRGVSKKIMRTFLRRISKDILTGKK]
MIC [1]: 40.2 µM (≈ 128 µg/mL)
MIC [2]: 1.26 µM (≈ 4 µg/mL)
MIC [3]: 1.26 µM (≈ 4 µg/mL)
MIC (Staphylococcus aureus): 20.1 µM (≈ 64 µg/mL)
MIC [4]: 1.26 µM (≈ 4 µg/mL)
MIC [5]: 1.26 µM (≈ 4 µg/mL)
MIC [6]: 0.628 µM (≈ 2 µg/mL)
MIC [7]: 1.26 µM (≈ 4 µg/mL)
MIC (Yersinia pestis KIM pYV): 5.02 µM (≈ 16 µg/mL)
MIC [8]: 0.628 µM (≈ 2 µg/mL)

CC[C@H](C)[C@H](NC(=O)CN)C(=O)NCC(=O)N[C@@H](C)C(=O)N[C@H](C(=O)N[C@@H](CC(C)C)C(=O)N[C@H](C(=O)N[C@H](C(=O)N[C@@H](CC(C)C)C(=O)N[C@H](C(=O)N[C@H](C(=O)NCC(=O)N[C@@H](CC(C)C)C(=O)N1CCC[C@H]1C(=O)N[C@@H](C)C(=O)N[C@@H](CC(C)C)C(=O)N[C@H](C(=O)N[C@@H](CO)C(=O)N[C@@H](Cc1c[nH]c2ccccc12)C(=O)N[C@H](C(=O)N[C@@H](CCCCN)C(=O)N[C@@H](CCCN=C(N)N)C(=O)N[C@@H](CCCCN)C(=O)N[C@@H](CCCN=C(N)N)C(=O)N[C@@H](CCC(N)=O)C(=O)N[C@@H](CCC(N)=O)C(N)=O)[C@@H](C)CC)[C@@H](C)CC)[C@@H](C)O)[C@@H](C)O)C(C)C)[C@@H](C)CC)C(C)C [GIGAVLIVLTTGLPALISWIKRKRQQ]
MIC [9]: 8 µM and 15 µM

CC[C@H](C)[C@H](N)C(=O)N[C@@H](CC(C)C)C(=O)N[C@@H](CCCCN)C(=O)N[C@@H](Cc1c[nH]c2ccccc12)C(=O)N[C@@H](CCCCN)C(=O)N[C@@H](Cc1c[nH]c2ccccc12)C(=O)N1CCC[C@H]1C(=O)N[C@@H](Cc1c[nH]c2ccccc12)C(=O)N[C@@H](Cc1c[nH]c2ccccc12)C(=O)N1CCC[C@H]1C(=O)N[C@@H](Cc1c[nH]c2ccccc12)C(=O)N[C@@H](CCCN=C(N)N)C(=O)N[C@@H](CCCN=C(N)N)C(N)=O [ILKWKWPWWPWRR]
MIC [10]: 5.16 µM (≈ 10 µg/mL)
MIC [11]: 10.3 µM (≈ 20 µg/mL)
MIC [12]: 2.58 µM (≈ 5 µg/mL)
MIC [13]: 5.16 µM (≈ 10 µg/mL)
MIC [14]: 5.16 µM (≈ 10 µg/mL)
MIC [15]: 5.16 µM (≈ 10 µg/mL)
MIC [16]: 2.58 µM (≈ 5 µg/mL)

CC[C@H](C)[C@@H]1NC(=O)CNC(=O)[C@@H](NC(=O)[C@H](CCCN=C(N)N)NC(=O)[C@@H](NC(=O)[C@H](CCCCN)NC(=O)[C@H](CC(=O)O)NC(=O)[C@H](CC(C)C)NC(=O)[C@@H](NC(=O)[C@H](CC(N)=O)NC(=O)[C@@H](NC(=O)[C@H](C)NC(=O)[C@H](Cc2ccccc2)NC(=O)[C@H](CCCCN)NC(=O)[C@H](CCCCN)NC(=O)CNC(=O)[C@H](C)NC(=O)[C@H](CCC(=O)O)NC(=O)[C@H](CCCCN)NC(=O)[C@@H](NC(=O)[C@@H](NC(=O)[C@H](CC(N)=O)NC(=O)[C@H](Cc2c[nH]c3ccccc23)NC(=O)[C@H](CC(C)C)NC(=O)CN)[C@@H](C)O)[C@@H](C)CC)[C@@H](C)CC)C(C)C)[C@@H](C)CC)CSSC[C@@H](C(=O)N[C@@H](CCCCN)C(=O)N[C@H](C(=O)O)[C@@H](C)O)NC(=O)CNC(=O)CNC(=O)[C@H](C)NC1=O [GLWNTIKEAGKKFAINVLDKIRCGIAGGCKT]
MIC [17]: 19 µM (≈ 62.8 µg/mL)
MIC [2]: 150 µM (≈ 496 µg/mL)
MIC [18]: 150 µM (≈ 496 µg/mL)
MIC [19]: 19 µM (≈ 62.8 µg/mL)
MIC [20]: 2.3 µM (≈ 7.6 µg/mL)
MIC (Serratia rubidaea X01): 4.6 µM (≈ 15.2 µg/mL)
MIC [21]: ≥ 150 µM
MIC [22]: ≥ 75 µM
MIC [23]: 4.5 µM (≈ 14.9 µg/mL)

CC[C@H](C)[C@@H]1NC(=O)[C@H](CCCCN)NC(=O)[C@@H](NC(=O)[C@H](CCCCN)NC(=O)[C@H](CC(C)C)NC(=O)[C@H](CCCCN)NC(=O)[C@H](CC(=O)O)NC(=O)[C@H](CC(C)C)NC(=O)[C@H](CC(C)C)NC(=O)[C@@H](NC(=O)[C@H](C)NC(=O)[C@H](C)NC(=O)[C@@H](NC(=O)[C@H](CC(N)=O)NC(=O)[C@H](CCCCN)NC(=O)[C@H](C)NC(=O)[C@@H](NC(=O)[C@H](CC(N)=O)NC(=O)[C@H](CCCCN)NC(=O)[C@H](C)NC(=O)[C@@H](NC(=O)[C@H](CC(=O)O)NC(=O)[C@H](CCSC)NC(=O)[C@H](Cc2ccccc2)NC(=O)CN)[C@@H](C)O)C(C)C)C(C)C)[C@@H](C)O)CSSC[C@@H](C(=O)O)NC(=O)CNC(=O)CNC(=O)[C@H]([C@@H](C)O)NC1=O [GFMDTAKNVAKNVAATLLDKLKCKITGGC]
MIC [24]: ≥ 128 µM
MIC [1]: > 100 µM
MIC [2]: 4.81 µM (≈ 14.5 µg/mL)
MIC [25]: ≥ 256 µM
MIC [18]: 2.42 µM (≈ 7.3 µg/mL)
MIC [26]: 25 µM (≈ 75.2 µg/mL)
MIC [27]: 4.81 µM (≈ 14.5 µg/mL)
MIC [28]: ≥ 32 µM
MIC [29]: ≥ 256 µM
MIC [30]: ≥ 128 µM
MIC [31]: 12.5 µM (≈ 37.6 µg/mL)
MIC [32]: ≥ 100 µM
MIC [33]: 4.81 µM (≈ 14.5 µg/mL)

CC[C@H](C)[C@H](NC(=O)CN)C(=O)NCC(=O)N[C@@H](CCCCN)C(=O)N[C@@H](Cc1ccccc1)C(=O)N[C@@H](CC(C)C)C(=O)N[C@@H](Cc1cnc[nH]1)C(=O)N[C@@H](CO)C(=O)N[C@@H](C)C(=O)N[C@@H](CCCCN)C(=O)N[C@@H](CCCCN)C(=O)N[C@@H](Cc1ccccc1)C(=O)N[C@@H](C)C(=O)N[C@@H](CCCCN)C(=O)N[C@@H](C)C(=O)N[C@@H](Cc1ccccc1)C(=O)N[C@H](C(=O)N[C@@H](C)C(=O)N[C@@H](CCC(=O)O)C(=O)N[C@H](C(=O)N[C@@H](CCSC)C(=O)N[C@@H](CC(N)=O)C(=O)N[C@@H](CO)C(N)=O)[C@@H](C)CC)C(C)C [GIGKFLHSAKKFAKAFVAEIMNS]
MIC [34]: 0.401 µM (≈ 1 µg/mL)
MIC [35]: 20 µM (≈ 50 µg/mL)
MIC [36]: 10 µM (≈ 25 µg/mL)
MIC [2]: 2 µM (≈ 5 µg/mL)
MIC [18]: 10 µM (≈ 25 µg/mL)
MIC [37]: 4.01 µM (≈ 10 µg/mL)
MIC [38]: 10 µM (≈ 25 µg/mL)
